Test results: patent publication EP2014655B1, “Etnangien derivatives and their use as antibiotics” (Helmholtz-Zentrum für Infektionsforschung, priority 2007, dated 2009)
Values after ≈ are worked out from the molar mass of the structure shown.

Experiments:
[1] = molecular target: T1, HIV I reverse transcriptase (HIVRT) (Human immunodeficiency virus type 1 group M subtype B, UniProt P04585); assay: Nucleic acid polymerase inhibition, in vitro assay; format: biochemical; conditions: result in words
T1 construct: HIV I reverse transcriptase (HIVRT)
Protocol: (§1) Similar antiviral activity is found for the Etnangien esters according to the invention.
(§2) Measurement results showing the nucleic acid polymerase inhibition by Etnangien 1 are shown in Figure 2 for E. coli RNA polymerase (EcRNAP), E. coli DNA polymerase (EcDNAP), and HIV I reverse transcriptase (HIVRT), and in Figure 3 for Moloney murine leukemia virus reverse transcriptase (MuLVRT). In vitro assays were performed according to Richardson et al. (J. Biol. Chem. 222-232 (1964)) and Houts et al. (J. Virol. 517-522(1979)). Maximum inhibition for E. coli polymerases was found for concentrations of 50 to 60 µg/mL, although E. coli itself was rather resistant.

[2] = molecular target: T2, Moloney murine leukemia virus reverse transcriptase (MuLVRT) (Moloney murine leukemia virus, UniProt P03355); assay: Nucleic acid polymerase inhibition, in vitro assay; format: biochemical
T2 construct: Moloney murine leukemia virus reverse transcriptase (MuLVRT)
Protocol: as §1, §2

Bacillus subtilis = assay: MIC by serial dilution; format: cell-based
Protocol: (§3) Antibiotic activity, which is assumed to be based on the inhibition of the RNA polymerase, was tested against several gram-positive and gram-negative bacteria and Saccharomyces cerevisiae, including a Rifampicin resistant Staphylococcus aureus clinical isolate.
(§4) The microorganisms tested were grown on 1% peptone, 0.1% meat extract, 0.1% yeast extract medium containing 1.5% agar at pH 7.0. MIC values were determined by serial dilution. Table 2: Antimicrobial activity of Etnangien methylester in comparison to Etnangien acid 1

[3] = tested on: Corynebacterium glutamicum (DSM 20300); assay: MIC by serial dilution; format: cell-based; conditions: DSM20300
Protocol: as §3, §4

E. coli = assay: MIC by serial dilution; format: cell-based; conditions: Escherichia coli
Protocol: as §3, §4

Micrococcus luteus = assay: MIC by serial dilution; format: cell-based
Protocol: as §3, §4

Nocardia corallina = assay: MIC by serial dilution; format: cell-based; conditions: Gordonia rubripertincta
Protocol: as §3, §4

[4] = tested on: S. aureus, Rifampicin resistant; assay: MIC by serial dilution; format: cell-based; conditions: Staphylococcus aureus
Protocol: as §3, §4

Saccharomyces cerevisiae = assay: MIC by serial dilution; format: cell-based
Protocol: as §3, §4

Staphylococcus aureus = assay: MIC by serial dilution; format: cell-based
Protocol: as §3, §4

Etnangien
inhibition of viral reverse transcriptase [1]: potent inhibitor
concentration of maximum inhibition ([2]; MuLVRT, Figure 3): 5 µg/mL
inhibition of reverse transcriptase ([2]; at concentrations of 5 µg/mL): inhibited completely

COC(=O)CC/C(C)=C/C(O)C/C=C/C=C/C=C/C=C/C=C/C(C)=C/C(O)C(C)C1CC(O)CCCC(OC)C/C=C\C=C\CC(C)C(O)C(C)C(O)C(C)C(O)CC(=O)O1 (stereo not drawn) [Etnangien methylester]
MIC (Bacillus subtilis): 20 µg/mL (≈ 23.4 µM)
MIC [3]: 0.24 µg/mL (≈ 0.281 µM)
MIC (E. coli): > 80 µg/mL
MIC (Micrococcus luteus): 0.39 µg/mL (≈ 0.456 µM)
MIC (Nocardia corallina): 0.12 µg/mL (≈ 0.14 µM)
MIC [4]: 3.1 µg/mL (≈ 3.63 µM)
MIC (Saccharomyces cerevisiae): > 40 µg/mL
MIC (Staphylococcus aureus): 2.5 µg/mL (≈ 2.92 µM)

COC1C/C=C\C=C\CC(C)C(O)C(C)C(O)C(C)C(O)CC(=O)OC(C(C)C(O)/C=C(C)/C=C/C=C/C=C/C=C/C=C/CC(O)/C=C(\C)CCC(=O)O)CC(O)CCC1 (stereo not drawn) [Etnangien]
MIC (E. coli): > 80 µg/mL
